Laboratory results: patent publication US20240301409A1, “Chemically Modified Small Activating RNA” (RACTIGEN THERAPEUTICS, priority 2021, published 2024)

Test system: p21 gene
Assay: p21 mRNA expression by RT-qPCR in T24 cells
Assay type: cell-based, human
Details: 10 nM
Experimental: Ku-7-LG and T24 cells were transfected with the indicated saRNA at a final concentration of 10 nM for 3 days. After transfection, the RNA was extracted with the Qiagen RNeasy kit. After reverse transcription, the ABI 7500 fast real-time PCR system was used for qPCR amplification. The GAPDH gene was amplified as an internal reference. […] Dashed line indicates duplex Rag1-40 with no chemical modification in comparison, and the values above the line indicate stronger activity. The control was blank transfection without oligonucleotide. dsCon2 is transfected with a double-stranded scramble RNA. The value of the ordinate represents the mean±SD of 2 repeated treatments.
The control and dsCon2 were blank transfection and scramble dsRNA transfection, respectively. The values in the ordinate represent the mean±SD of 2 repeated treatments.
Human bladder cancer cells Ku-7-LG (ATCC), J82 (ATCC) and T24 (ATCC) were cultured in McCoy medium (Gibco) comprising 10% calf serum (Sigma-Aldrich) and 1% penicillin/Streptomycin (Gibco). Cells were cultured at 37° C. under 5% CO2. Ku-7-LG, J82 and T24 cells were plated into 12-well plates at 10×10^4 cells per well, transfected with the small RNA at a concentration of 10 nM (unless otherwise specified) for three days, using RNAiMax (Invitrogen, Carlsbad, CA) according to the manufacturer's instructions. Two replicate wells were set for each treatment.
After transfection, the medium was discarded and to each well 500 μl cell lysate was added and incubated at room temperature for 5 minutes. RNA was extracted with the Qiagen RNeasy kit, and after reverse transcription, qPCR analysis was performed on the ABI 7500 Fast Real-time PCR system (Applied Biosystems). Each sample was amplified in 3 replicate wells.
The PCR reaction conditions are: 95° C. for 30 seconds, 95° C. for 5 seconds, 60° C. for 30 seconds, and 40 cycles of amplification. The GAPDH gene was amplified as an internal reference at the same time. p21 was amplified with the p21F1/R1 primer pair, and the specific sequences of the amplification primers are shown in Table 1.
In order to calculate the expression value (Erel) of p21 (target gene) of a saRNA transfection sample relative to the control treatment, Formula 1 is used to input the Ct values of the target gene and the internal reference gene for calculation.
wherein, CtTm is the Ct value of the target gene from the control treatment sample; CtTs is the Ct value of the target gene from the saRNA treated sample; CtRm is the Ct value of the internal reference gene from the control treatment sample; and CtRs is the Ct value of the internal reference gene from the saRNA treated sample.
The main purpose of introducing chemical modifications to regulatory oligonucleotides of a gene is to improve their pharmaceutical properties, including enhancing in vivo stability and mitigating off-target effects (e.g., sequence-dependent targeting of unrelated genes, sequence-dependent or independent immune stimulation), while maintaining their gene regulatory capacity (gene knockdown or activation). To assess the effect of chemical modification on the RNAa activity of saRNA on the p21 gene, 10 nM unmodified (Rag1-40) and modified (Rag1-40-1 to Rag1-40-34) duplexes were transfected into Ku-7-LG and T24 cells, respectively. After 72 hours, the mRNA expression level of p21 was assessed by RT-qPCR. All duplexes induced p21 mRNA expression in all […] at least double that of the control.
In order to further evaluate the expression level of p21 mRNA after the different durations of treatment by the chemically modified saRNA duplexes, two saRNAs (RAG1-40-31 and RAG1-40-53) were randomly selected from the above chemically modified saRNA duplexes for detection. RAG1-40-31 and RAG1-40-53 were transfected into Ku-7-LG and T24 cells at a final concentration of 10 nM, for 1, 2, 3, 4, 7 and 9 days, respectively. Each treatment was set up in duplicate. […]

RAG1-40-31: saRNA duplex: sense fCfCAACUCAUUCUCCAAG*U*C (SEQ ID NO 16); antisense U*A*fCfUfUGGAGAAfUGAGfUfUGG*fC*A (SEQ ID NO 12) (sense CCAACUCAUUCUCCAAGUC; antisense UACUUGGAGAAUGAGUUGGCA; 2'-F and phosphorothioate modifications; modified_base (1)..(2) (1,2)=2′-fluoro; modified_base (17)..(19) (17,18,19)=phosphorothioate (PS) backbone modification; modified_base (2)..(21) (2,3,19,20,21)=phosphorothioate (PS) backbone modification; modified_base (3)..(20) (3,4,5,12,16,17,20)=2′-fluoro)
increase of expression level of p21 mRNA compared with the control group (1 day): 2.1 fold | increase of expression level of p21 mRNA compared with the control group (2 days): 3.7 fold | increase of expression level of p21 mRNA compared with the control group (3 days): 4.7 fold | RNA activation activity (p21 mRNA), in words (72 hours, compared with unmodified Rag1-40 unless worded otherwise): reduced activity | increase of expression level of p21 mRNA compared with the control group (4 days): 3.3 fold | increase of expression level of p21 mRNA compared with the control group (7 days): 1.2 fold | increase of expression level of p21 mRNA compared with the control group (9 days): 1.3 fold
